Experimental data reported in PubChem BioAssay (NCI).
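Following 48 hours of exposure in 96-well plates, responses at five concentrations were used to interpolate endpoints linearly. Definition used: TGI = concentration required for complete inhibition of growth.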

Experiments:
Assay in all cases: NCI anticancer screen, dose series, 48 h
MCF7 breast = test system: MCF7 breast
OVCAR-3 ovarian = test system: OVCAR-3 ovarian
EKVX NSCLC = test system: EKVX NSCLC
SF-539 CNS = test system: SF-539 CNS
TK-10 renal = test system: TK-10 renal
SNB-19 CNS = test system: SNB-19 CNS
HCC-2998 colon = test system: HCC-2998 colon
SK-OV-3 ovarian = test system: SK-OV-3 ovarian
RXF 393 renal = test system: RXF 393 renal
SNB-75 CNS = test system: SNB-75 CNS
A498 renal = test system: A498 renal
NCI/ADR-RES ovarian = test system: NCI/ADR-RES ovarian
UACC-62 melanoma = test system: UACC-62 melanoma
MDA-MB-231 breast = test system: MDA-MB-231 breast
SW-620 colon = test system: SW-620 colon
SK-MEL-2 melanoma = test system: SK-MEL-2 melanoma
MOLT-4 leukemia = test system: MOLT-4 leukemia
OVCAR-8 ovarian = test system: OVCAR-8 ovarian
SF-268 CNS = test system: SF-268 CNS
HCT-116 colon = test system: HCT-116 colon
M14 melanoma = test system: M14 melanoma
786-0 renal = test system: 786-0 renal
KM12 colon = test system: KM12 colon
LOX IMVI melanoma = test system: LOX IMVI melanoma
OVCAR-5 ovarian = test system: OVCAR-5 ovarian
UO-31 renal = test system: UO-31 renal
COLO 205 colon = test system: COLO 205 colon
ACHN renal = test system: ACHN renal
MDA-MB-435 = test system: MDA-MB-435
T-47D breast = test system: T-47D breast
NCI-H460 lung = test system: NCI-H460 lung
CCRF-CEM leukemia = test system: CCRF-CEM leukemia
A549 NSCLC = test system: A549 NSCLC
HCT-15 colon = test system: HCT-15 colon
CAKI-1 renal = test system: CAKI-1 renal
OVCAR-4 ovarian = test system: OVCAR-4 ovarian
HL-60(TB) leukemia = test system: HL-60(TB) leukemia
SK-MEL-28 melanoma = test system: SK-MEL-28 melanoma
HOP-92 NSCLC = test system: HOP-92 NSCLC
RPMI-8226 leukemia = test system: RPMI-8226 leukemia
K-562 leukemia = test system: K-562 leukemia
BT-549 breast = test system: BT-549 breast
HT29 colon = test system: HT29 colon
U251 CNS = test system: U251 CNS
IGROV1 ovarian = test system: IGROV1 ovarian
SF-295 CNS = test system: SF-295 CNS
PC-3 prostate = test system: PC-3 prostate
HOP-62 NSCLC = test system: HOP-62 NSCLC
MDA-N = test system: MDA-N
DU-145 prostate = test system: DU-145 prostate
SK-MEL-5 melanoma = test system: SK-MEL-5 melanoma
UACC-257 melanoma = test system: UACC-257 melanoma
SN12C renal = test system: SN12C renal
MALME-3M melanoma = test system: MALME-3M melanoma
NCI-H23 lung = test system: NCI-H23 lung
NCI-H226 lung = test system: NCI-H226 lung
HS 578T breast = test system: HS 578T breast
NCI-H522 lung = test system: NCI-H522 lung
SR leukemia = test system: SR leukemia

**Q.** What does the source list for COCCCN(Cc1cc(OC)c(OC)c(OC)c1)C(=S)Nc1cccc(Cl)c1?
**A.** TGI (MCF7 breast): 62.1 µM; TGI (OVCAR-3 ovarian): > 100 µM; TGI (EKVX NSCLC): 52.4 µM; TGI (SF-539 CNS): > 100 µM; TGI (TK-10 renal): > 100 µM; TGI (SNB-19 CNS): > 100 µM; TGI (HCC-2998 colon): > 100 µM; TGI (SK-OV-3 ovarian): > 100 µM; TGI (RXF 393 renal): 96.4 µM; TGI (SNB-75 CNS): 70.7 µM; TGI (A498 renal): > 100 µM; TGI (NCI/ADR-RES ovarian): 63.1 µM; TGI (UACC-62 melanoma): 44.7 µM; TGI (MDA-MB-231 breast): 83.5 µM; TGI (SW-620 colon): > 100 µM; TGI (SK-MEL-2 melanoma): 52.1 µM; TGI (MOLT-4 leukemia): 33.1 µM; TGI (OVCAR-8 ovarian): 72.7 µM; TGI (SF-268 CNS): 63.6 µM; TGI (HCT-116 colon): 45.1 µM; TGI (M14 melanoma): 51.8 µM; TGI (786-0 renal): 85.4 µM; TGI (KM12 colon): 67.6 µM; TGI (LOX IMVI melanoma): 51.1 µM; TGI (OVCAR-5 ovarian): 75.1 µM; TGI (UO-31 renal): 90.5 µM; TGI (COLO 205 colon): > 100 µM; TGI (ACHN renal): > 100 µM; TGI (MDA-MB-435): 48.4 µM; TGI (T-47D breast): 49.2 µM; TGI (NCI-H460 lung): > 100 µM; TGI (CCRF-CEM leukemia): 55.7 µM; TGI (A549 NSCLC): > 100 µM; TGI (HCT-15 colon): 61.1 µM; TGI (CAKI-1 renal): > 100 µM; TGI (OVCAR-4 ovarian): 91.4 µM; TGI (HL-60(TB) leukemia): 45.4 µM; TGI (SK-MEL-28 melanoma): 85.1 µM; TGI (HOP-92 NSCLC): 53.7 µM; TGI (RPMI-8226 leukemia): 37.4 µM; TGI (K-562 leukemia): 69.2 µM; TGI (BT-549 breast): 64.9 µM; TGI (HT29 colon): 50.2 µM; TGI (U251 CNS): > 100 µM; TGI (IGROV1 ovarian): > 100 µM; TGI (SF-295 CNS): > 100 µM; TGI (PC-3 prostate): 68.2 µM; TGI (HOP-62 NSCLC): > 100 µM; TGI (MDA-N): 45.7 µM; TGI (DU-145 prostate): > 100 µM; TGI (SK-MEL-5 melanoma): 30 µM; TGI (UACC-257 melanoma): 48.5 µM; TGI (SN12C renal): 92.5 µM

**Q.** Which TGI (MCF7 breast) does the source give for CCC(=O)O[C@H]1CC[C@H]2[C@@H]3CCC4=CC(=O)C=C[C@]4(O)[C@H]3CC[C@]12C here?
**A.** > 100 µM

**Q.** And the TGI (OVCAR-3 ovarian)?
**A.** 68.4 µM

**Q.** What about the TGI (EKVX NSCLC) of the same molecule?
**A.** > 100 µM

**Q.** What about the TGI (SF-539 CNS) of the same molecule?
**A.** > 100 µM

**Q.** And the TGI (TK-10 renal)?
**A.** > 100 µM

**Q.** And the TGI (SNB-19 CNS)?
**A.** > 100 µM

**Q.** What about the TGI (SK-OV-3 ovarian) of the same molecule?
**A.** > 100 µM

**Q.** And the TGI (RXF 393 renal)?
**A.** 52.4 µM

**Q.** And the TGI (A498 renal)?
**A.** > 100 µM

**Q.** And the TGI (NCI/ADR-RES ovarian)?
**A.** 91.9 µM

**Q.** And the TGI (UACC-62 melanoma)?
**A.** > 100 µM

**Q.** What about the TGI (MDA-MB-231 breast) of the same molecule?
**A.** 58.5 µM

**Q.** What about the TGI (SW-620 colon) of the same molecule?
**A.** > 100 µM

**Q.** And the TGI (MALME-3M melanoma)?
**A.** > 100 µM

**Q.** What about the TGI (SK-MEL-2 melanoma) of the same molecule?
**A.** 45.8 µM

**Q.** What about the TGI (MOLT-4 leukemia) of the same molecule?
**A.** > 100 µM

**Q.** And the TGI (OVCAR-8 ovarian)?
**A.** > 100 µM

**Q.** What about the TGI (SF-268 CNS) of the same molecule?
**A.** > 100 µM

**Q.** And the TGI (NCI-H23 lung)?
**A.** > 100 µM

**Q.** What about the TGI (NCI-H226 lung) of the same molecule?
**A.** > 100 µM

**Q.** And the TGI (HCT-116 colon)?
**A.** > 100 µM

**Q.** And the TGI (M14 melanoma)?
**A.** > 100 µM

**Q.** And the TGI (786-0 renal)?
**A.** > 100 µM

**Q.** And the TGI (KM12 colon)?
**A.** 85.1 µM

**Q.** What about the TGI (LOX IMVI melanoma) of the same molecule?
**A.** 69.5 µM

**Q.** What about the TGI (OVCAR-5 ovarian) of the same molecule?
**A.** > 100 µM

**Q.** And the TGI (UO-31 renal)?
**A.** > 100 µM

**Q.** And the TGI (COLO 205 colon)?
**A.** > 100 µM

**Q.** And the TGI (ACHN renal)?
**A.** > 100 µM

**Q.** And the TGI (MDA-MB-435)?
**A.** 10.2 µM

**Q.** And the TGI (HS 578T breast)?
**A.** > 100 µM

**Q.** What about the TGI (NCI-H460 lung) of the same molecule?
**A.** 44.5 µM

**Q.** And the TGI (CCRF-CEM leukemia)?
**A.** 17.2 µM

**Q.** What about the TGI (A549 NSCLC) of the same molecule?
**A.** > 100 µM

**Q.** And the TGI (HCT-15 colon)?
**A.** > 100 µM

**Q.** And the TGI (NCI-H522 lung)?
**A.** > 100 µM

**Q.** And the TGI (CAKI-1 renal)?
**A.** 88.4 µM

**Q.** What about the TGI (OVCAR-4 ovarian) of the same molecule?
**A.** > 100 µM

**Q.** What about the TGI (HL-60(TB) leukemia) of the same molecule?
**A.** 37.6 µM

**Q.** What about the TGI (SK-MEL-28 melanoma) of the same molecule?
**A.** > 100 µM

**Q.** And the TGI (HOP-92 NSCLC)?
**A.** 82.1 µM

**Q.** What about the TGI (SR leukemia) of the same molecule?
**A.** 80.5 µM

**Q.** And the TGI (RPMI-8226 leukemia)?
**A.** > 100 µM

**Q.** And the TGI (K-562 leukemia)?
**A.** > 100 µM

**Q.** And the TGI (BT-549 breast)?
**A.** 57.5 µM

**Q.** And the TGI (HT29 colon)?
**A.** 58.4 µM

**Q.** What about the TGI (U251 CNS) of the same molecule?
**A.** 47.4 µM

**Q.** And the TGI (IGROV1 ovarian)?
**A.** > 100 µM

**Q.** What about the TGI (SF-295 CNS) of the same molecule?
**A.** > 100 µM

**Q.** And the TGI (PC-3 prostate)?
**A.** 81.4 µM

**Q.** And the TGI (HOP-62 NSCLC)?
**A.** > 100 µM

**Q.** What about the TGI (MDA-N) of the same molecule?
**A.** > 100 µM

**Q.** And the TGI (DU-145 prostate)?
**A.** 64.5 µM

**Q.** What about the TGI (SK-MEL-5 melanoma) of the same molecule?
**A.** 19.9 µM

**Q.** And the TGI (UACC-257 melanoma)?
**A.** 26.8 µM

**Q.** And the TGI (SN12C renal)?
**A.** > 100 µM
